Reference: patent US9115122B2, “Non-ATP dependent inhibitors of extracellular signal-regulated kinase (ERK)” (UNIVERSITY OF MARYLAND, BALTIMORE, priority 2012, dated 2015)

Legend:
Assay in all cases: Cell proliferation WST-1 assay, single dose (Example 4)
Type in all cases: cell-based
Settings in all cases: 100 μM, 48 hours
A375 melanoma cells = test system: A375 melanoma cells
Experimental: (§1) In addition, compounds were tested in RPMI-7951 cells, which also contain mutated BRaf and are resistant to BRaf inhibitors due to the overexpression of MAP3K8 (the gene encoding COT/Tp12) that provides an alternative mechanism to indirectly or directly activate ERK proteins. […] For comparison, HeLa cervical carcinoma and Jurkat T-cell leukemia cells, which are p53 defective cancer cell lines but contain no known activating mutations in the ERK pathway, were studied. […] Cell proliferation was evaluated by water soluble tetrazolium-1 (WST-1) assay as previously described. Briefly, cells (˜5000/well) were seeded in 96 well plates, allowed to recover for 16-20 hours, and then treated with the indicated test compound for 48 hours. After incubation, WST-1 reagent was added and absorbance was read at 450 nm with background subtraction taken at 650 nm. Values were normalized to the control (DMSO only treated) cells.

SK-MEL-28 melanoma cells = test system: SK-MEL-28 melanoma cells
Experimental: as §1

[1] = test system: HeLa cervical carcinoma cells
Experimental: as §1

RPMI-7951 melanoma cells = test system: RPMI-7951 melanoma cells
Experimental: as §1

[2] = test system: Jurkat T-cell leukemia cells
Experimental: as §1

HL-60 leukemic cells = test system: HL-60 leukemic cells
Experimental: as §1

Structure (SMILES)	Cell Viability (% of Vehicle) A375 (A375 melanoma cells)	Cell Viability (% of Vehicle) SK-MEL-28 (SK-MEL-28 melanoma cells)	Cell Viability (% of Vehicle) HeLa [1]	Cell Viability (% of Vehicle) RPMI-7951 (RPMI-7951 melanoma cells)	Cell Viability (% of Vehicle) Jurkat [2]	Cell Viability (% of Vehicle) HL-60 (HL-60 leukemic cells)
CCOc1ccc(/C=C2\SC(=O)N(C(C)CN)C2=O)cc1 (stereo not drawn) [Compound 22c, (Z)-3-(1-aminopropan-2-yl)-5-(4-ethoxybenzylidene)thiazolidine-2,4-dione]	13 ± 2 % of Vehicle	28 ± 4 % of Vehicle	45 ± 7 % of Vehicle	22 ± 3 % of Vehicle	54 ± 10 % of Vehicle	8.1 ± 3 % of Vehicle
CCOc1ccc(/C=C2\SC(=O)N(C[C@H](N)C(=O)OC)C2=O)cc1 [Compound 22d, (S,Z)-methyl 2-amino-3-(5-(4-ethoxybenzylidene)-2,4-dioxothiazolidin-3-yl)propanoate]	41 ± 11 % of Vehicle	33 ± 9 % of Vehicle	87 ± 4 % of Vehicle	1.8 ± 0.1 % of Vehicle	100 ± 5 % of Vehicle	25 ± 5 % of Vehicle
CCOc1ccc(/C=C2\SC(=O)N(C(CN)CN)C2=O)cc1 [Compound 22e, (Z)-3-(1,3-diaminopropan-2-yl)-5-(4-ethoxybenzylidene)thiazolidine-2,4-dione]	19 ± 4 % of Vehicle	32 ± 2 % of Vehicle	62 ± 2 % of Vehicle	25 ± 3 % of Vehicle	81 ± 9 % of Vehicle	11 ± 4 % of Vehicle
CCOc1ccc(/C=C2\SC(=O)N(CCNC)C2=O)cc1 [Compound 23a, (Z)-5-(4-ethoxybenzylidene)-3-(2-(methylamino)ethyl)thiazolidine-2,4-dione]	95 ± 2 % of Vehicle	91 ± 1 % of Vehicle	85 ± 4 % of Vehicle	54 ± 7 % of Vehicle	83 ± 6 % of Vehicle	17 ± 11 % of Vehicle
CCNCCN1C(=O)S/C(=C\c2ccc(OCC)cc2)C1=O [Compound 23b, (Z)-5-(4-ethoxybenzylidene)-3-(2-(ethylamino)ethyl)thiazolidine-2,4-dione]	51 ± 4 % of Vehicle	63 ± 10 % of Vehicle	81 ± 2 % of Vehicle	60 ± 4 % of Vehicle	69 ± 10 % of Vehicle	14 ± 4 % of Vehicle
CCOc1ccc(/C=C2\SC(=O)N(CCNCC(C)C)C2=O)cc1 [Compound 23c, (Z)-5-(4-ethoxybenzylidene)-3-(2-(isobutylamino)ethyl)thiazolidine-2,4-dione]	1.0 ± 0.1 % of Vehicle	1.3 ± 0.1 % of Vehicle	3.7 ± 0.4 % of Vehicle	1.0 ± 0.1 % of Vehicle	2.5 ± 0.1 % of Vehicle	10 ± 4 % of Vehicle
CCOc1ccc(/C=C2\SC(=O)N(CCNCc3ccccc3)C2=O)cc1 [Compound 23d, (Z)-3-(2-(benzylamino)ethyl)-5-(4-ethoxybenzylidene)thiazolidine-2,4-dione]	13 ± 1 % of Vehicle	25 ± 6 % of Vehicle	37 ± 1 % of Vehicle	2.5 ± 0.3 % of Vehicle	89 ± 4 % of Vehicle	5.0 ± 2 % of Vehicle
CCOc1ccc(/C=C2\SC(=O)N(CCNCc3ccc(C#N)cc3)C2=O)cc1 [Compound 23e, (Z)-4-(((2-(5-(4-ethoxybenzylidene)-2,4-dioxothiazolidin-3-yl)ethyl)amino)methyl)benzonitrile]	89 ± 3 % of Vehicle	96 ± 6 % of Vehicle	88 ± 2 % of Vehicle	96 ± 5 % of Vehicle	98 ± 5 % of Vehicle	75 ± 25 % of Vehicle
CCOc1ccc(/C=C2\SC(=O)N(CCN(C)C)C2=O)cc1 [Compound 24a, (Z)-3-(2-(dimethylamino)ethyl)-5-(4-ethoxybenzylidene)thiazolidine-2,4-dione]	115 ± 2 % of Vehicle	101 ± 0.3 % of Vehicle	90 ± 5 % of Vehicle	130 ± 4 % of Vehicle	95 ± 1 % of Vehicle	110 ± 14 % of Vehicle
CCOc1ccc(/C=C2\SC(=O)N(CCN(Cc3ccccc3)Cc3ccccc3)C2=O)cc1 [Compound 24b, (Z)-3-(2-(dibenzylamino)ethyl)-5-(4-ethoxybenzylidene)thiazolidine-2,4-dione]	122 ± 7 % of Vehicle	104 ± 4 % of Vehicle	92 ± 9 % of Vehicle	120 ± 3 % of Vehicle	104 ± 2 % of Vehicle	109 ± 24 % of Vehicle
CCOc1ccc(/C=C2\SC(=O)N(CCN(Cc3ccc(C#N)cc3)Cc3cccc(C#N)c3)C2=O)cc1 [Compound 24c, (Z)-3-(((4-cyanobenzyl)(2-(5-(4-ethoxybenzylidene)-2,4-dioxothiazolidin-3-yl)ethyl)amino)methyl)benzonitrile]	115 ± 1 % of Vehicle	107 ± 3 % of Vehicle	97 ± 8 % of Vehicle	108 ± 9 % of Vehicle	100 ± 2 % of Vehicle	108 ± 16 % of Vehicle
CCOc1ccc(/C=C2\SC(=O)N(CCNC(C)=O)C2=O)cc1 [Compound 25a, (Z)—N-(2-(5-(4-ethoxybenzylidene)-2,4-dioxothiazolidin-3-yl)ethyl)acetamide]	121 ± 4 % of Vehicle	105 ± 2 % of Vehicle	100 ± 11 % of Vehicle	124 ± 5 % of Vehicle	105 ± 8 % of Vehicle	106 ± 23 % of Vehicle
